Reference: patent US20260042755A1, “GPR6 INVERSE AGONISTS” (MapLight Therapeutics, Inc., priority 2022, published 2026)

How the values were obtained:
[1] = biological target: T1, GPR6 (Homo sapiens, UniProt P46095); experiment: GPR6 antagonist functional cAMP assay (LANCE Ultra cAMP TR-FRET, CHO cells stably expressing GPR6); format: cell-based
T1 construct: expressed in transfected cells; host or cells: CHO cells
In short: (§1)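 10,000 cells/well; KRB buffer + 0.1% BSA + 150 μM Ro 20-1724; cpd 45 min, 37 °C, 0.1% DMSO; TR-FRET cAMP, 665 nm; 4-PL fit, normalized to DMSO (0.1%) and reference (100%) → IC50.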

[2] = biological target: T2, GPR3 (Homo sapiens, UniProt P46089); experiment: GPR3 antagonist functional cAMP assay (LANCE Ultra cAMP TR-FRET, CHO cells stably expressing GPR3); format: cell-based
T2 construct: expressed in transfected cells; host or cells: CHO cells
In short: as §1

[3] = CHO cells stably expressing GPR6, cAMP assay (Example 24)
[4] = CHO cells stably expressing GPR3, cAMP assay (Example 24)
[5] = CHO cells stably expressing GPR6, cAMP assay
[6] = CHO cells stably expressing GPR3, cAMP assay

T1 sequence (P46095 whole entry): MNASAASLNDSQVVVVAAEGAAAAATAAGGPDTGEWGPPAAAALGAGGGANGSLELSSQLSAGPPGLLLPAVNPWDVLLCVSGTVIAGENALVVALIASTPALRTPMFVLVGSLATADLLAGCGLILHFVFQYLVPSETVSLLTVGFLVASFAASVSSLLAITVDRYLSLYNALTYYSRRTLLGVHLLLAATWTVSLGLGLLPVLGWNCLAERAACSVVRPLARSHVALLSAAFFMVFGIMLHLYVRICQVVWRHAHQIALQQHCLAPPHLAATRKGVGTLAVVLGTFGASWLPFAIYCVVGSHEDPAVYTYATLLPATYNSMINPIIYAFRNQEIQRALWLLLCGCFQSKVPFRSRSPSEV
T2 sequence (P46089 whole entry, species assumed): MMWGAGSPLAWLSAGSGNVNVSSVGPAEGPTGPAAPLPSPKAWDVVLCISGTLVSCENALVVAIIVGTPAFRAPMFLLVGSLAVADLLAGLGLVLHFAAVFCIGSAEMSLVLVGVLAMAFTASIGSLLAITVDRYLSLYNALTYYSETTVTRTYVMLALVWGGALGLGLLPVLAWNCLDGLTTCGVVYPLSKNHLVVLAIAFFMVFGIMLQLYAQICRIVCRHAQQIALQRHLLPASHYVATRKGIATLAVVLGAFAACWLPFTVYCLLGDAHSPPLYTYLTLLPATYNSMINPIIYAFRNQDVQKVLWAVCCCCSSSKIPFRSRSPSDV

SMILES	IC50 ([1]; procedure of Example 24) [nM]	IC50 ([2]; procedure of Example 24) [nM]	IC50 [1, 3] [nM]	IC50 [2, 4] [nM]	other results
CC(C)(O)[C@H](O)c1cc2nc(N3CCC(=Cc4ccc(F)cc4F)CC3)c(-c3cnn(C4CC4)c3)nc2cn1 (single isomer, unassigned) [Compound 770]	100 to 1000	1000 to 30000	–	–	–
CC(C)(O)[C@H](O)c1cc2nc(N3CCC(=Cc4ccc(F)cc4F)CC3)c(-c3cnn(C(F)F)c3)nc2cn1 (single isomer, unassigned) [Compound 779]	< 100	1000 to 30000	–	–	–
Cn1cc(-c2nc3cnccc3nc2N2CCN(CC3CCC(F)(F)CC3)CC2)cn1 [Compound 213, 1-[(4,4-difluorocyclohexyl)methyl]-4-[3-(1-methyl-1H-pyrazol-4-yl)pyrido[3,4-b]pyrazin-2-yl]piperazine]	–	–	1000 to 30000	1000 to 30000	–
CN1CCc2nc(N3CCC(Oc4ccc(F)cc4F)CC3)c(-c3cnn(C4CCCCO4)c3)nc2C1 (stereo not shown) [Compound 169, 4-(2,4-difluorophenoxy)-1-{6-methyl-3-[1-(oxan-2-yl)-1H-pyrazol-4-yl]-5H,6H,7H,8H-pyrido[3,4-b]pyrazin-2-yl}piperidine]	–	–	1000 to 30000	1000 to 30000	–
CC(C)(O)[C@@](C)(O)c1cc2nc(N3CCN(Cc4ccc(F)cc4F)CC3)c(-c3cnn(CF)c3)nc2cn1 (single isomer, unassigned) [Compound 650]	100 to 1000	1000 to 30000	–	–	–
CC(=O)N1CCc2nc(N3CCC(Oc4cccc(F)c4F)CC3)c(-c3cnn(C)c3)nc2C1 [Compound 423, 1-{2-[4-(2,3-difluorophenoxy)piperidin-1-yl]-3-(1-methyl-1H-pyrazol-4-yl)-5H,6H,7H,8H-pyrido[3,4-b]pyrazin-6-yl}ethan-1-one]	–	–	1000 to 30000	1000 to 30000	–
CC(C)(O)C(O)c1cc2nc(-c3cnn(C(F)F)c3)c(N3CCC(Oc4ccc(F)cc4F)CC3)nc2cn1 (single isomer, unassigned) [Compound 584]	–	–	–	–	IC50 [1, 5]: < 100 nM; IC50 [2, 6]: 1000 to 30000 nM
CCn1cc(-c2nc3c(nc2N2CCC(Oc4ccc(F)cc4F)CC2)CCN(C(=O)OC)C3)cn1 [Compound 273, methyl 2-[4-(2,4-difluorophenoxy)piperidin-1-yl]-3-(1-ethyl-1H-pyrazol-4-yl)-5H,6H,7H,8H-pyrido[3,4-b]pyrazine-6-carboxylate]	< 100	1000 to 30000	–	–	–
CCn1cc(-c2nc3cnc(CC(C)(C)O)cc3nc2N2CCC(Oc3ccc(F)cc3F)CC2)cn1 [Compound 706, 1-{2-[4-(2,4-difluorophenoxy)-1-piperidyl]-3-(1-ethyl-4-pyrazolyl)-1,4,6-triaza-7-naphthyl}-2-methyl-2-propanol]	100 to 1000	1000 to 30000	–	–	–
COc1cccc(-c2nc3c(nc2N2CCN(Cc4cc(Cl)ccc4Cl)CC2)CCN(C(C)=O)C3)n1 [Compound 183, 1-(2-{4-[(2,5-dichlorophenyl)methyl]piperazin-1-yl}-3-(6-methoxypyridin-2-yl)-5H,6H,7H,8H-pyrido[3,4-b]pyrazin-6-yl)ethan-1-one]	–	–	< 100	1000 to 30000	–
CC(C)(O)C(O)c1ncc2nc(-c3cnn(CF)c3)c(N3CCN(Cc4ccc(F)cc4F)CC3)nc2c1F (racemic) [Compound 797, 1-(2-{4-[(2,4-difluorophenyl)methyl]-1-piperazinyl}-8-fluoro-3-[1-(fluoromethyl)-4-pyrazolyl]-1,4,6-triaza-7-naphthyl)-2-methyl-1,2-propanediol]	100 to 1000	1000 to 30000	–	–	–
Cn1cc(-c2nc3cn(C)c(=O)cc3nc2N2CCC(Oc3ccc(F)cc3F)CC2)cn1 [Compound 447, 2-[4-(2,4-difluorophenoxy)piperidin-1-yl]-6-methyl-3-(1-methyl-1H-pyrazol-4-yl)-6H,7H-pyrido[3,4-b]pyrazin-7-one]	–	–	1000 to 30000	1000 to 30000	–
CC(=O)N1CCc2nc(N3CCC(Oc4ccc(F)cc4F)CC3)c(-c3cccc(N)n3)nc2C1 [Compound 168, 1-[3-(6-aminopyridin-2-yl)-2-[4-(2,4-difluorophenoxy)piperidin-1-yl]-5H,6H,7H,8H-pyrido[3,4-b]pyrazin-6-yl]ethan-1-one]	–	–	< 100	100 to 1000	–
CC(=O)N1CCc2nc(N3CCCC(Oc4ccccc4F)C3)c(-c3cnn(C)c3)nc2C1 (stereo not shown) [Compound 336, 1-{2-[3-(2-fluorophenoxy)piperidin-1-yl]-3-(1-methyl-1H-pyrazol-4-yl)-5H,6H,7H,8H-pyrido[3,4-b]pyrazin-6-yl}ethan-1-one]	≥ 30000	100 to 1000	–	–	–
CC(=O)N1CCc2nc(N3CCC(C(=O)N(C)C)C3)c(-c3cnn(C)c3)nc2C1 (stereo not shown) [Compound 388, 1-[6-acetyl-3-(1-methyl-1H-pyrazol-4-yl)-5H,6H,7H,8H-pyrido[3,4-b]pyrazin-2-yl]-N,N-dimethylpyrrolidine-3-carboxamide]	–	–	≥ 30000	100 to 1000	–
CC(=O)N1CCc2nc(N3CCN(Cc4cc(Cl)c(F)cc4F)CC3)c(-c3cnn(C)c3)nc2C1 [Compound 360, 1-(2-{4-[(5-chloro-2,4-difluorophenyl)methyl]piperazin-1-yl}-3-(1-methyl-1H-pyrazol-4-yl)-5H,6H,7H,8H-pyrido[3,4-b]pyrazin-6-yl)ethan-1-one]	100 to 1000	1000 to 30000	–	–	–
CCn1cc(-c2nc3c(nc2N2CCC(Oc4ccc(F)cc4F)CC2)CCN(C(=O)COC)C3)cn1 [Compound 275, 1-{2-[4-(2,4-difluorophenoxy)piperidin-1-yl]-3-(1-ethyl-1H-pyrazol-4-yl)-5H,6H,7H,8H-pyrido[3,4-b]pyrazin-6-yl}-2-methoxyethan-1-one]	< 100	100 to 1000	–	–	–
CCn1cc(-c2nc3c(nc2N2CCN(C(=O)c4ccc(Cl)cc4)CC2)CCN(C(C)=O)C3)cn1 [Compound 549, 1-{2-[4-(p-chlorobenzoyl)-1-piperazinyl]-3-(1-ethyl-4-pyrazolyl)-5,6,7,8-tetrahydro-1,4,6-triaza-6-naphthyl}-1-ethanone]	–	–	–	–	IC50 [1, 5]: 100 to 1000 nM; IC50 [2, 6]: 1000 to 30000 nM
CCN1CCc2nc(N3CCC(Oc4ccc(F)cc4F)CC3)c(-c3cn[nH]c3)nc2C1 [Compound 170, 4-(2,4-difluorophenoxy)-1-[6-ethyl-3-(1H-pyrazol-4-yl)-5H,6H,7H,8H-pyrido[3,4-b]pyrazin-2-yl]piperidine]	–	–	100 to 1000	1000 to 30000	–
CC(=O)N1CCc2nc(N3CCC(Oc4cccc(F)c4)CC3)c(-c3cnn(C)c3)nc2C1 [Compound 393, 1-{2-[4-(3-fluorophenoxy)piperidin-1-yl]-3-(1-methyl-1H-pyrazol-4-yl)-5H,6H,7H,8H-pyrido[3,4-b]pyrazin-6-yl}ethan-1-one]	–	–	1000 to 30000	1000 to 30000	–
CC(=O)OC1CCN(c2nc3c(nc2-c2cnn(C)c2)CN(Cc2ccccc2)CC3)C1 (stereo not shown) [Compound 495, 1-[6-benzyl-3-(1-methyl-4-pyrazolyl)-5,6,7,8-tetrahydro-1,4,6-triaza-2-naphthyl]-3-pyrrolidinyl acetate]	–	–	–	–	IC50 [1, 5]: 1000 to 30000 nM; IC50 [2, 6]: ≥ 30000 nM
COC(=O)/C(C)=C/c1cc2nc(N3CCC(Oc4ccc(F)cc4F)CC3)c(-c3cnn(C)c3)nc2cn1 [Compound 734, methyl 3-{2-[4-(2,4-difluorophenoxy)-1-piperidyl]-3-(1-methyl-4-pyrazolyl)-1,4,6-triaza-7-naphthyl}methacrylate]	1000 to 30000	1000 to 30000	–	–	–
CC(=O)N1CCc2nc(N3CCC(=Cc4ccc(F)cc4F)CC3)c(-c3cnn(C)c3)nc2C1 [Compound 542, 1-(2-(4-(2,4-difluorobenzylidene)piperidin-1-yl)-3-(1-methyl-1H-pyrazol-4-yl)-7,8-dihydropyrido[3,4-b]pyrazin-6(5H)-yl)ethan-1-one]	–	–	–	–	IC50 [1, 5]: < 100 nM; IC50 [2, 6]: 100 to 1000 nM
